# From patent publication US20060275503A1, “Combination treatment with strontium for the prophylaxis and/or treatment of cartilage and/or bone conditions” (Nordic Bone A/S, priority 2003, published 2006)
# What was measured:
# [1] = Description: The solubility of the organic carboxylic acid strontium salts, were measured in water. The solubility of these salts was also measured as a function of temperature. This was performed by incubating the saturated solutions of the salts in temperature controlled incubators.
# The buffered solutions were immersed into a bath of water temperature controlled at either room temperature (22-24° C.), at 30° C. or at 40° C. […] In order to eliminate any reminiscent strontium chloride influence on the determination of solubility, all the precipitate was collected at the bottom of the test tubes and the solutions above the precipitate were carefully removed and substituted by fresh solutions. […] From these solutions, the dissolved proportions of the strontium salt were collected in volumes of 1 mL at the specified temperature. The solutions were diluted to 50 mL before analysis by Flame Atomic Absorption Spectrometry (F-AAS).
# Two methods were used for quantification of strontium in solutions: Flame Atomic Absorption Spectrometry (F-AAS), and the more sensitive inductively-coupled-plasma-mass spectrometry (ICP-MS).
# The solubilities were investigated as described above, and strontium content in the saturated solutions determined as described here below.
# Some of the very soluble strontium salts were further diluted before analysis by F-AAS. The measurements were performed by using a Perkin-Elmer 2100 equipped with a hydrogen lamp for correction of the background signal. Strontium was measured at a slit with of 0.2 nm, the wavelength was 460.8 nm operated at an energy of 58 and a current of 8 mA.
# This analysis was performed using a Perkin Elmer Elan 5000 system equipped with a cross-flow nebulizer. The power was set at 1000 W and the Argon-gas flow was 12 L/min and 0.8 L/min of the torch and plasma gas, respectively.
# [2] = values quoted in scientific literature or reference material such as the Beilstein compendium; cited from earlier work
# [3] = target: T1, calcium-sensing receptor (CaR) (Homo sapiens, UniProt P41180); conditions: cited from earlier work
# T1 sequence (P41180 20-1078): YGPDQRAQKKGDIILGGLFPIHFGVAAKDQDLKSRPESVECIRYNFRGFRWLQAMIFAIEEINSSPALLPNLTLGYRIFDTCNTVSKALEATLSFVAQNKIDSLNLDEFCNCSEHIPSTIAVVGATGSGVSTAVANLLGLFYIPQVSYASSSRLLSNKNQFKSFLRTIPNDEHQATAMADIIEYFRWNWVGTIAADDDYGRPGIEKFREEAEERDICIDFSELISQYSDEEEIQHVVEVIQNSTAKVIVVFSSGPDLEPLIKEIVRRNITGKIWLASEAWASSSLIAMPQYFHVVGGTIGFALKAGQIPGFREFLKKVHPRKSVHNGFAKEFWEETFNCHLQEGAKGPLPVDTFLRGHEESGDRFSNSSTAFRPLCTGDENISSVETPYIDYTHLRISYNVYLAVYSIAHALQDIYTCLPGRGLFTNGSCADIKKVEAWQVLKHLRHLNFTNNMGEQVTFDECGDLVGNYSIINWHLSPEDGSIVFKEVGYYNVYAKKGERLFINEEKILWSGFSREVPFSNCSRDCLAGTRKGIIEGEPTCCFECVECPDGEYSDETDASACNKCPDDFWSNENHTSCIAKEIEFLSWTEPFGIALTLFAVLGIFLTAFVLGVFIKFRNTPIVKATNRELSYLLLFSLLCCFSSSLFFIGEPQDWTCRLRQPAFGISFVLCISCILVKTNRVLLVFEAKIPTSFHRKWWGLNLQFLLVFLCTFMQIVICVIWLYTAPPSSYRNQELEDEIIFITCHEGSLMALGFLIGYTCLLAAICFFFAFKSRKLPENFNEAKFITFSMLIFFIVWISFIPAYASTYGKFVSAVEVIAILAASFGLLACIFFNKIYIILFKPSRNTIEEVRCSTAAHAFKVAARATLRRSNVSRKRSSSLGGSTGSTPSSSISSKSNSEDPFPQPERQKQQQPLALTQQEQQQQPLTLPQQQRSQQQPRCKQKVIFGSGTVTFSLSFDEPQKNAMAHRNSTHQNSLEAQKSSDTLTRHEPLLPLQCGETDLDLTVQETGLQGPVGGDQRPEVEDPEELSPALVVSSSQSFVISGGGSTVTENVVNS
compound,measurement,setting,value
"O=C([O-])/C=C\C(=O)[O-].[Sr+2] [Maleate, strontium maleate]",solubility in ammonium carbonate buffered solution of pH 7.5 compared with pure water,[1]; pH 7.5,decreased solubility
"[Cl-].[Cl-].[Sr+2] [SrCl2, strontium chloride]","Solubility, Measured g/L","[1]; commercially available strontium salts, in water at room temperature (22-24)",240 g/L
same,"Solubility, Expected value 18° C.",[2],538 mg/mL
[Sr+2] [strontium],activity at the calcium-sensing receptor (CaR),[3],full agonist
"N#Cc1c(N(CC(=O)[O-])CC(=O)[O-])sc(C(=O)[O-])c1CC(=O)[O-].[Sr+2].[Sr+2] [Ranelate, distrontium salt of 2-[N,N-di(carboxymethyl)amino]-3-cyano-4-carboxymethylthiophene-5-carboxylic acid]",SOLUBILITY AT 40° C. (mg/L) In water,[1],1450 mg/L
same,SOLUBILITY AT ROOM TEMPERATURE (22-24° C. mg/L) In water,[1],760 mg/L
same,SOLUBILITY AT 40° C. (mg/L) pH 7.5,[1]; pH 7.5,1970 mg/L
same,SOLUBILITY AT ROOM TEMPERATURE (22-24° C. mg/L) pH 7.5,[1]; pH 7.5,890 mg/L
